These results are taken from article PMC12244496 (bioRxiv, 2025).

The subject of one experiment is mESCs. In words: Recovery of H3K27me1/2/3 in mESCs after tazemetostat treatment. The settings on record: 10 μM for 7 days. In kind it is cell-based, mouse.
For the next experiment, the target named is core PRC2 (Homo sapiens, UniProt O75530+Q15910). Kind of experiment: PRC2-core activity assay. It is filed as biochemical. The conditions noted are these: 50 μM peptide; histone H3 peptide (residues 21–44) substrate.

Where no end group is shown, it is not given here. [ ]: non-standard residue; d: D form. Lys(Me3) = C[N+](C)(C)CCCC[C@H](N)C(=O)O

Chain of core PRC2 (Q15910 whole entry, the tested form may be a part): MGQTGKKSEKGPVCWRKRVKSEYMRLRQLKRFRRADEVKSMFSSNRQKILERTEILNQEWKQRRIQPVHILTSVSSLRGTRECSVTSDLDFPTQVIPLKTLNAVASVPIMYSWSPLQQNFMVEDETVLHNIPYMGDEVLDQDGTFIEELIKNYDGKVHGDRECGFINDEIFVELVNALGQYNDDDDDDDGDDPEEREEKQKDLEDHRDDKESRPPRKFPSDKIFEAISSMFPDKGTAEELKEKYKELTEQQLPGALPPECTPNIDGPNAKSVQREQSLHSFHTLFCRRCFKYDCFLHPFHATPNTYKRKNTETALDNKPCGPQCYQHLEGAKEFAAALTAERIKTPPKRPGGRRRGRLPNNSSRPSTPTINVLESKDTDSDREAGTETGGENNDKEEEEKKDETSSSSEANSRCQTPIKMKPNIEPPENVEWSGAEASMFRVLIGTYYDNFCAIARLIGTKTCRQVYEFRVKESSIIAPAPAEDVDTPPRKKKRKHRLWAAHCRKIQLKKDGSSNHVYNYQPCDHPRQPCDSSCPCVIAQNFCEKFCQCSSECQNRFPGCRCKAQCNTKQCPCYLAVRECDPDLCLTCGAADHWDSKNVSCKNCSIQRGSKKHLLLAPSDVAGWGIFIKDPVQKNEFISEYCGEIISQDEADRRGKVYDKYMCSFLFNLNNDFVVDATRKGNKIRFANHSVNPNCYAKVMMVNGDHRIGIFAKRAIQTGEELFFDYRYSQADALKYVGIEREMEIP
Chain of core PRC2 (O75530 whole entry, the tested form may be a part): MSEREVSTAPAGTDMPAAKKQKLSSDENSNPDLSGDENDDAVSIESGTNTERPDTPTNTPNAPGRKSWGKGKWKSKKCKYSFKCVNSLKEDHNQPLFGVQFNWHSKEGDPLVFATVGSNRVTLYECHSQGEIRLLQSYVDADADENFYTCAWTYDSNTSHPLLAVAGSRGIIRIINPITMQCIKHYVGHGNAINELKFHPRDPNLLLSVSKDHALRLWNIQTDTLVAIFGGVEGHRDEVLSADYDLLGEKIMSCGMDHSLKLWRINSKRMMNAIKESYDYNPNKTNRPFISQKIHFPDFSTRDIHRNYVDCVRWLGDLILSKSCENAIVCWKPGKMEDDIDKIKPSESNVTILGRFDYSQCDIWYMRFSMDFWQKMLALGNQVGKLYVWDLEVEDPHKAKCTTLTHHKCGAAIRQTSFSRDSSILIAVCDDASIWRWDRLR
Chain of core PRC2 (Q15022 whole entry partner, the tested form may be a part): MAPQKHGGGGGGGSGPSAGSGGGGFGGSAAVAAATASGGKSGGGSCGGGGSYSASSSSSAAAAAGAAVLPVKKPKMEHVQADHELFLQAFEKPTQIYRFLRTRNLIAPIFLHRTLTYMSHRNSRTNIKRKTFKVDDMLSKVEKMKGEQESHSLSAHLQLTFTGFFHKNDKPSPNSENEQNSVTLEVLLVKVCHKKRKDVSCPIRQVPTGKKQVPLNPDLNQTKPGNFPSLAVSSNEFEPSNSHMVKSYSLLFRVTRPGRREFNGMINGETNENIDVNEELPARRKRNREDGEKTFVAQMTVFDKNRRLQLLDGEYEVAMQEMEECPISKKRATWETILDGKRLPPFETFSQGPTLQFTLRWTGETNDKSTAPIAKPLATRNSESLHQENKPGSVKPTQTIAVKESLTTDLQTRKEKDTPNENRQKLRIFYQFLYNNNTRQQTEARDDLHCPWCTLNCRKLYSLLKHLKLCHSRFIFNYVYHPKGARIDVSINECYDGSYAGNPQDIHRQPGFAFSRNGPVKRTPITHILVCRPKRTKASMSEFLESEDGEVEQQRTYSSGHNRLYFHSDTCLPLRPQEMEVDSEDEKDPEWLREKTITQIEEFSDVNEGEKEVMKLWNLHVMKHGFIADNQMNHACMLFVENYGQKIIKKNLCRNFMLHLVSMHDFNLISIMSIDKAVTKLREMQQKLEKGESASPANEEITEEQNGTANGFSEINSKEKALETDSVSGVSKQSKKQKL
Chain of core PRC2 (Q09028 whole entry partner, the tested form may be a part): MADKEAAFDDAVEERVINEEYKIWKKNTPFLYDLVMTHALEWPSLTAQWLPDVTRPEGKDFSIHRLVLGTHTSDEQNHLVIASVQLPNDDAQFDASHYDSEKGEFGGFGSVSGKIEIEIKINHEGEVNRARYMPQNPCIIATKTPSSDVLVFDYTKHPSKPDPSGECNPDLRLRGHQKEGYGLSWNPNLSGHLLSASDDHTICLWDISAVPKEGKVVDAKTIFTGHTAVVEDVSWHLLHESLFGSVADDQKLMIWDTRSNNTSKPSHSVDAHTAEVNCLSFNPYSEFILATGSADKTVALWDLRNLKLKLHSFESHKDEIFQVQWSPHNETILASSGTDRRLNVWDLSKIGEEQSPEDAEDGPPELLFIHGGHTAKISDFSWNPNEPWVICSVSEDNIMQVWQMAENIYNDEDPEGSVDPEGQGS

As for `CCN(c1cc(-c2ccc(CN3CCOCC3)cc2)cc(C(=O)NCc2c(C)cc(C)[nH]c2=O)c1C)C1CCOCC1` [tazemostat, tazemetostat], the “depletion of H3K27me1/2/3” value in the experiment with mESCs is “completely depleted”.

With TKAAR[Lys(Me3)]SA [compound 4], the “PRC2 activity (%)” value on core PRC2 was 485±93%. The same measure, in the same setting: the same measure for KAAR[Lys(Me3)]SAPA [compound 2]: 583±28%.
